Test results reported in publication PMC8689140 (Frontiers in Pharmacology, 2021).

What was measured:
rat VMAT2 = target: T1, rat VMAT2 (Rattus norvegicus, UniProt Q01827); assay: [3H]DA uptake assay in rat striatal synaptosomes; format: biochemical
T1 construct: in vitro [^3H]DA uptake assay in rat striatal synaptosomes; from tissue; host or cells: rat striatal synaptosomes / vesicular suspension
Description: [^3H]DA (dihydroxyphenylethyethylamine, 3,4-[ring-2,5,6-^3H]; specific activity, 28.0 Ci/mmol) was purchased from Perkin Elmer. […] After drying, the filter plate was sealed with unifilter-96 back sealing tape and added 50 μl of microscint-20 (Perkin Elmer), then sealed the top of the filter plate with TopSeal-A. The radioactivity was measured by a TopCount scintillation counter. GraphPad Prism 5.0 was used to analyze data.

[1] = tested on: locomotor activity of rats; assay: Dose-dependent effects on locomotor activity in rats; format: in vivo, rat; details: for reduction rate (RR) of locomotion: 0.5-[…] after dosing
Description: Before administration, animals were transported to the test room and allowed to acclimate for at least 1 h. Immediately after drug administration, rats were placed into activity chambers to assess their basal locomotor activity using the TopScan monitoring system. The total travel distance was recorded from 0.5 to 1.5 h after administration in intervals of 10 min.

[2] = tested on: locomotor activity of rats; assay: Time-dependent effects on locomotor activity in rats; format: in vivo, rat; details: SD rats, 1.3 μmol/kg
Description: Rats were placed into the detection box after a single intragastric administration at different time points, and two rats from each group were used in each round of the experiment. The TopScan monitoring system was used to record and analyze the locomotor activity of the rats in different periods (0–1, 1–2, 3–4, 5–6, 6–7, and 7–8 h) after administration, and the RR was calculated as previously described.

[3] = Bidirectional permeability in Caco-2 cell monolayers; format: in vitro ADME; details: human, Caco-2, with or without verapamil 30 μM (range covers both); 2.0, 10.0, and 100 µM, presence or absence of verapamil 30 μM, 2 h; read-out: mean Papp (AP→BL)
Description: (§1) Caco-2 cells (ATCC, United States) were seeded on a 96-multiwell insert system (Corning, United States) at a density of 1.0 × 10^5 cells/cm^2. After about 24 days of culture, […] permeability was measured to evaluate the integrity of Caco-2 cell monolayers, and the percent of lucifer yellow in basolateral well which should be less than 1%. Before initiating the transport studies, the cell monolayers were washed with warm HBSS. […] Aliquots from the receiver chamber were collected at 2 h after incubation and stored at −20°C until analysis via LC-MS/MS. All experiments were conducted in triplicate. Permeability coefficient (Papp) and the efflux ratio (ER = P app (BL→AP)/P app (AP→BL)) were calculated.

Caco-2 cell monolayers = assay: as above; format: in vitro ADME
Description: as §1

[4] = Metabolite identification in dog plasma after oral dose; format: in vivo; details: dog plasma after oral administration
Description: Male beagle dogs were randomly divided into four groups. […] The dogs were fasted for 12 h before treatment and 4 h after treatment, but they were granted free access to water. Blood was collected from the vein before administration and 0.083 (only for injection groups), 0.25, 0.5, 1, 2, 3, 4, 6, 8, 12 and 24 h, and placed it in heparinized tubes, and centrifuged it at 8,000 rpm for 10 min at 4°C to separate the plasma, which we stored at −20 °C until analysis. The plasma samples were pretreated by protein precipitation with acetonitrile and quantitated by the validated LC-MS/MS (Shimadzu Exion-Triple Quad 4500) method.
Then, four volumes of acetonitrile (containing 0.1% formic acid) were added into the pooled plasma samples to precipitate the proteins. After vortex-mixing and centrifugation, the supernatants were dried under a nitrogen stream. Then, the residues were resuspended in 100 μl of acetonitrile/water (1:1, v/v) with 0.1% formic acid. After centrifugation, the supernatants were analyzed by UPLC–UV-HRMS for metabolite identification.
The analysis was performed on Acquity UPLC system coupled with a diode array detector (Waters Corporation, United States) and Q Exactive™ Orbitrap HRMS (Thermo Electron Corporation, United States). […] The mobile phase was composed water containing 0.1% formic acid (A) and acetonitrile containing 0.1% formic acid (B). The flow rate was 0.40 ml/min. The elution conditions were the following linear gradient for metabolite identify in HLMs: 0–1 min: 95% A, 1–2 min: 80% A, 2–5 min: 80% A, 5–8 min: 70% A, 8–12 min: 30% A, 12–15 min: 5% A, 15–16 min: 95% A, and 16–18 min: 95% A. The elution conditions were the following for metabolite identify in dog plasma: 0–1 min: 95% A, 1–30 min: 70% A, 30–32 min: 30% A, 32–33 min: 5% A, 33–35 min: 95% A, and 35–40 min: 95% A.
HRMS were operated at positive ion mode using a heating electrospray ionization source (HESI). The optimized operating parameters were set as follows: sheath gas (nitrogen) flow rate of 35 psi, aux gas (nitrogen) flow rate of 10 psi, HESI and capillary temperature of 350°C, and spray voltage of 3.5 kV. The metabolites were detected by full MS/dd-MS^2 analysis from m/z 100 to m/z 1,000. The resolution of the first-class scan and second-class scan was 70 000 and 17 500, respectively. The collision energy for collision induced dissociation (NCE) was set to 20, 40 and 60 eV. The loop count was set to five and the dynamic exclusion duration to 10 s. […] Thermo Compound Discover software was used to identify expected and unknown metabolites, and we finally proposed (+)-13e metabolic pathways based on the deduced metabolites and relevant drug biotransformation knowledge.

[5] = Metabolite identification in liver microsomes from humans, dogs and rats (stated across species); format: in vitro ADME, human, dog, rat; details: liver microsomes from humans, rats, and dogs
Description: Human, rat and dog liver microsomes were carefully thawed on ice prior to the experiment and diluted to 1 mg/ml in100 mM sodium phosphate buffer (pH 7.4) containing 10 mM magnesium chloride. […] After 3 min of preincubation at 37°C, the reactions were initiated by adding 20 µL of NADPH (20 mM) and then incubated at 37°C in a shaking water bath for 60 min. All samples were prepared in duplicates. The reactions were terminated by adding 600 µl of ice-cold acetonitrile and stored at −20°C until analysis. Control samples without NADPH and 0-time point samples were included. As a positive control, testosterone (10 µM) which was metabolized to produce the hydroxylation metabolite was used as a substrate to confirm the activity of the incubation system. Next, the samples were centrifuged at 13,000 rpm for 10 min, the supernatant was separated and evaporated to dryness under a nitrogen stream. The residue was resuspended in 100 μl of acetonitrile, after centrifugation, the supernatants were analyzed by UPLC–UV-HRMS.
The analysis was performed on Acquity UPLC system coupled with a diode array detector (Waters Corporation, United States) and Q Exactive™ Orbitrap HRMS (Thermo Electron Corporation, United States). […]
HRMS were operated at positive ion mode using a heating electrospray ionization source (HESI). […] The metabolites were detected by full MS/dd-MS^2 analysis from m/z 100 to m/z 1,000. […]

[6] = tested on: dopamine receptors, serotonin receptors, adrenergic receptors, dopamine transporter, norepinephrine transporter, five serotonin transporter; assay: Multi-target activity screen of SpectrumScreen Panel (Eurofins screen); details: serotonin transporters, and so on

T1 sequence (Q01827 whole entry): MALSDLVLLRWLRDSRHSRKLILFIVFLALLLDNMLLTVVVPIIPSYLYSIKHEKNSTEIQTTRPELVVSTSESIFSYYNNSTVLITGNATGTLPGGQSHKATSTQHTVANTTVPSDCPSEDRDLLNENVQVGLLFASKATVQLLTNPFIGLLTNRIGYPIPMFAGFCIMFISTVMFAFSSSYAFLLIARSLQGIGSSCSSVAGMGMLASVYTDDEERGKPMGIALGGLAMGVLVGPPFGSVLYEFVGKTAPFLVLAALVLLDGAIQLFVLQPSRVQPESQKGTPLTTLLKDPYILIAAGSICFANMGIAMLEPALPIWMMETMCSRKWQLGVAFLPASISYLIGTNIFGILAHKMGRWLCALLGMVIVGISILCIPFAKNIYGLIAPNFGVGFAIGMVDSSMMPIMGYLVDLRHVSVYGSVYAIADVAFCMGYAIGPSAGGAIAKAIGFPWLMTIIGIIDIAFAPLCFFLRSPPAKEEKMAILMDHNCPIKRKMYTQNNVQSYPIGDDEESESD

Compound: COc1cc2c(cc1OCC(F)(F)F)CCN1CC(CC(C)C)C(O)CC21 (single isomer, unassigned; (+)) [(+)-13e, (+)-9-(2,2,2-trifluoroethoxy)-α-dihydrotetrabenazine]
- IC90 (rat VMAT2; [3H]DA uptake, rat striatal synaptosomes): 34.1 nM
- inhibitory effect on [3H]DA uptake stronger than that of HTBZ (rat VMAT2; ratio of IC50 vs HTBZ): approximately 5 fold
- starting effective dose ([1]; SD rats, first dose with significant inhibition of locomotor activity vs NS (p < 0.05)): 0.32 µmol/kg
- reduction rate (RR) of locomotion ([1]; SD rats, single oral gavage 0.32 μmol/kg): 58.6%
- reduction rate (RR) of locomotion ([1]; SD rats, single oral gavage 1.3 μmol/kg): 95.5%
- PD effect stronger than that of VBZ in vivo ([1]; rat locomotor activity): approximately 4 fold
- duration of significant inhibition of locomotor activity [2]: at least 8 h
- Papp A→B at 2 h [3]: 26 to 35 ×10⁻⁶ cm/s
- permeability across the Caco-2 cell monolayer (Caco-2 cell monolayers): high permeability
- substrate of P-gp or breast cancer resistance protein (BCRP) (Caco-2 cell monolayers; efflux not observed): unlikely to be a substrate
- O-detrifluoroethylation at the nine position [4]: did not occur
- O-detrifluoroethylation at the nine position [5]: did not occur
- effects in multi-target activity screen [6]: no effects
